This note sets out measurements from ChEMBL document CHEMBL5260799, “Pterocarpan scaffold: A natural lead molecule with diverse pharmacological properties” (Eur J Med Chem, 2017).

By IC50 is commonly meant the concentration that gives 50% inhibition. As a reminder, the MIC is the smallest concentration in the dilution series that meets the test's criterion for growth inhibition. As usually defined, the EC50 is the concentration needed to bring the measured effect to its halfway point. What is called inhibition is the drop in the measured response relative to a control, in per cent.

In brackets after ≈: the same amount, converted by molar mass. Where only a bound is given, the exact number is not on record here.

One data set is filed under the species Mus musculus. Description: Reduction in hepatic steatosis in HFD-induced C57BL/6J mouse model assessed as reduction in serum LDL level […]. It counts as functional, organism-based.
A short description of data set [1]: Inhibition of melanin in human melanocyte. The format is functional, cell-based.
The next data set deals with BMDC. The experiment in a line: Anti-inflammatory activity against LPS-induced C57BL/6 mouse BMDC cells assessed as inhibition of IL-12 production at 25 uM by ELISA method. The format is functional. Also noted: scale not given: the % may be the effect or the level left. For orientation: ELISA stands for enzyme-linked immunosorbent assay.
The test system of data set [2] is HL-60. Description: Antiproliferative activity against human HL-60 cells assessed as reduction in cell viability at 12.5 ug/ml by tryphan blue staining assay. It counts as functional. The conditions noted are these: dose 12.5 µg/ml.
The subject of data set [3] is MCF7. Description: Antiproliferative activity against human MCF7 cells assessed as inhibition of cell proliferation incubated for 72 hrs by MTT assay. It counts as functional, cell-based. The conditions noted are these: MCF7, 72 h. Background: Formazan colour is commonly taken as a measure of viable cells.
The next data set relates to CCRF-CEM. The experiment in a line: Cytotoxicity against human CCRF-CEM cells assessed as reduction in cell viability incubated for 72 hrs by MTT assay. The format is functional, cell-based.
Data set [4] relates to Mycobacterium tuberculosis. Description: Antimycobacterial activity against Mycobacterium tuberculosis H37Rv assessed as inhibition of bacterial growth by Microplate alamar blue assay. The format is functional, organism-based. A general note: The colour change of resazurin is a common sign of viable cells or microbes.
In data set [5] the test system is Plasmodium falciparum. The experiment in a line: Antiplasmodial activity against Plasmodium falciparum K1 assessed as reduction in parasite growth by fluorescence based assay. It counts as functional, organism-based.
Data set [6] relates to Staphylococcus aureus. The experiment in a line: Antibacterial activity against methicillin-resitant Staphylococcus aureus N1 assessed as reduction in bacterial growth by microbroth dilution method. The format is functional.
Another data set has as its target Neuraminidase (Influenza A virus, UniProt B4URF0). Description: Inhibition of Influenza A virus H5N1 neuraminidase.
Data set [7] relates to Plasmodium falciparum. Description: Antiplasmodial activity against Plasmodium falciparum D6 assessed as reduction in plasmodial growth after 48 hrs by fluorescence based analysis. The format is functional, organism-based. The conditions noted are these: D6, 48 h.
For a further data set, the system named is RAW264.7. Description: Antiinflammatory activity in mouse RAW264.7 cells assessed as inhibition of LPS-induced NO production at 50 uM measured after 24 hrs by Griess method. It counts as functional, cell-based. The conditions noted are these: RAW264.7, 24 h.
Data set [8] relates to Plasmodium falciparum. Description: Antiplasmodial activity against Plasmodium falciparum W2 assessed as reduction in plasmodial growth after 48 hrs by fluorescence based analysis. The format is functional, organism-based. The following applies: W2, 48 h.
Data set [9] concerns Staphylococcus aureus. The experiment in a line: Antibacterial activity against methicillin-resistant Staphylococcus aureus assessed as bacterial growth inhibition. It counts as functional, organism-based.
Another data set concerns A2780. Description: Antiproliferative activity against human A2780 cells assessed as reduction in cell viability incubated for 96 hrs by MTT assay. The format is functional, cell-based. The conditions noted are these: A2780, 96 h.
The test system of data set [10] is K562. The experiment in a line: Cytotoxicity activity against human K562 cells assessed as reduction in cell viability […] measured after 72 hrs by MTT assay. It counts as functional, cell-based. The conditions noted are these: K562, 72 h.
A short description of data set [11]: Cytotoxicity activity against human Lucena 1 cells assessed as reduction in cell viability […] measured after 72 hrs by MTT assay. It counts as functional, cell-based. The conditions noted are these: Lucena 1, 72 h.
Another data set deals with HeLa. Description: Cytotoxicity against human HeLa cells assessed as reduction in cell viability by MTT assay. The format is functional, cell-based.
The test system of the next data set is MDA-MB-231. The experiment in a line: Cytotoxicity against human MDA-MB-231 assessed as reduction in cell viability by MTT assay. It counts as functional, cell-based.
The subject of data set [12] is HL-60. The experiment in a line: Antiproliferative activity against human HL-60 cells assessed as reduction in cell proliferation measured after 36 hrs by MTT assay. The format is functional, cell-based. The following applies: HL-60, 36 h.
A further data set has as its system Jurkat. The experiment in a line: Antiproliferative activity against human Jurkat cells assessed as reduction in cell proliferation measured after 24 hrs by MTT assay. The format is functional, cell-based.
Data set [13] has as its system K562. The experiment in a line: Antiproliferative activity against human K562 cells assessed as reduction in cell proliferation measured after 36 hrs by MTT assay. The following applies: K562, 36 h. It counts as functional, cell-based.
The nature of data set [14]: Antiproliferative activity against human PBMC cells assessed as reduction in cell viability at 10 microg/ml measured after 72 hrs by MTT assay. It counts as toxicity, cell-based. The conditions noted are these: at 10 µg/mL.
For data set [15], the system named is HL-60. The experiment in a line: Antiproliferative activity against human HL-60 cells assessed as reduction in cell viability at 1.25 ug/ml by tryphan blue staining assay. It counts as functional. The following applies: dose 1.25 µg/ml.
Data set [16] deals with HL-60. Description: Antiproliferative activity against human HL-60 cells assessed as reduction in cell viability at 2.5 ug/ml by tryphan blue staining assay. The format is functional. The conditions noted are these: dose 2.5 µg/ml.
The test system of a further data set is MOLT-4. Description: Antiproliferative activity against human MOLT-4 cells assessed as reduction in cell proliferation measured after 24 hrs by MTT assay. It counts as functional, cell-based. The following applies: MOLT-4, 24 h.
Data set [17] concerns MCF7. Description: Antiproliferative activity against human MCF7 cells assessed as growth inhibition measured after 48 hrs by CellTiter-Blue assay. The format is functional, cell-based. The conditions noted are these: MCF7, 48 h.

Neuraminidase, sequence (B4URF0 whole entry): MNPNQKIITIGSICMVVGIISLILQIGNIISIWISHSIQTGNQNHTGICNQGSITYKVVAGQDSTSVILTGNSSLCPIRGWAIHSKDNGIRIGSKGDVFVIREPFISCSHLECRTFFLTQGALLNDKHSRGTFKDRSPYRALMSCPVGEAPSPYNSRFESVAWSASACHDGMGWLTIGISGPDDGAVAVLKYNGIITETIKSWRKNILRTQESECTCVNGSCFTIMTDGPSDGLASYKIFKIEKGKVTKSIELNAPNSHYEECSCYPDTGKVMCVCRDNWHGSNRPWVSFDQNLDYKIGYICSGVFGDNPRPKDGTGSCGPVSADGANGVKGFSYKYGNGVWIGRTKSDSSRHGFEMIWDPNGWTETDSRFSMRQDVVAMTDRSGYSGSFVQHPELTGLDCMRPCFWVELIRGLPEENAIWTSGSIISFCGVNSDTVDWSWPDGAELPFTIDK

`CC(C)(O)c1cc2cc3c(cc2o1)OC[C@@]1(O)c2ccc(O)cc2O[C@@H]31`: the IC50 in the data set listed under Mus musculus turned out to be 19.8 µM.
The molecule `COc1c(O)cc2c(c1CC=C(C)C)O[C@H]1c3ccc(O)cc3OC[C@@H]21` registered an IC50 in data set [1] of 1.44 µM.
Consider `COc1ccc2c(c1OC)OC1c3ccc(O)cc3OCC21` (centres undefined), for which the Activity in the data set on BMDC is 45%.
Take `COc1ccc2c(c1)O[C@@H]1c3ccc(O)c(O)c3OC[C@H]21`: the Activity in the data set with HL-60 [2] was 72.1%.
As for `COc1cc2c(cc1O)OC1C2COC2C(=O)c3ccccc3C(=O)C21` (centres undefined), in the data set with MCF7 [3], the IC50 was 5.3 µM.
As for `C=C(C)[C@@H]1Cc2cc3c(cc2O1)OC[C@@]1(O)c2ccc(O)cc2O[C@@H]31` [GLYCEOLLIN III], the IC50 in the data set listed under Mus musculus was 45 µM.
As to `COc1ccc2c(c1CC=C(C)C)O[C@H]1c3ccc(O)cc3OC[C@@]21O` [ERYTHRABYSSIN I], the IC50 in the data set on CCRF-CEM came out at 3.36 µM.
Regarding `COc1ccc2c(c1CC=C(C)C)O[C@H]1c3cc(CC=C(C)C)c(O)cc3OC[C@@]21O` [ERYSTAGALLIN A], the figures for the IC50 (in data set [4]; in the data set with Plasmodium falciparum [5]) were 12.5 µg/mL (≈ 29.6 µM) and 3.8 µg/mL (≈ 8.99 µM), respectively. For the same molecule, in the data set on Staphylococcus aureus [6], the MIC was 0.78 µg/mL (≈ 1.85 µM).
On to `O=c1oc2cc(O)ccc2c2oc3cc(O)ccc3c12` [COUMESTROL], for which the figures for the IC50 in the data set filed under Mus musculus and against Neuraminidase were 0.9 µM and 37.8 µM, respectively.
With `COc1cc(Br)c2c(c1CC=C(C)C)O[C@H]1c3ccc(O)cc3OC[C@@H]21`, the IC50 in the data set on Plasmodium falciparum [7] came out at 12.9 µg/mL.
In turn, `C=C/C(C)=C/c1c(O)ccc2c1OC[C@H]1c3cc(C)c(O)c(CC=C(C)C)c3O[C@@H]21` had an IC50 in data set [1] of 1.52 µM.
For the molecule `CC(C)=CCc1cc2c(cc1O)OC1c3ccc(O)cc3OCC21` (centres undefined), in the data set with CCRF-CEM, the IC50 came to 3.73 µM.
Consider `CC/C=C/OC[C@H]1O[C@H](Oc2ccc3c(c2)OC[C@H]2c4ccc(OC)c(OC)c4O[C@@H]32)[C@H](O)[C@@H](O)[C@@H]1O`, for which the concentration giving a half-maximal response (EC50) with RAW264.7 was 19.2 µM.
In the case of `CC1(C)C=Cc2cc3c(cc2O1)OCC1c2ccc(O)cc2OC31` (centres undefined), the IC50 with Plasmodium falciparum [8] amounted to 17 µM; in the data set on Plasmodium falciparum [7], 19.4 µM.
The molecule `CC(C)=CCc1cc2c(cc1O)OC[C@H]1c3c4c(c(O)c(CC=C(C)C)c3O[C@@H]21)OC(C)(C)CC4` gave an IC50 in data set [1] of 0.4 µM.
With `CC(C)=CCc1cc2c(cc1O)OCc1c-2oc2c(CC=C(C)C)c(O)ccc12` [ERYCRYSTAGALLIN], the half-maximal inhibitory concentration (IC50) in the data set with Staphylococcus aureus [9] turned out to be 6.25 µg/mL (≈ 16 µM). Besides, the MIC in the data set with Staphylococcus aureus [6] is 0.78 µg/mL (≈ 2 µM).
Turning to `C=C(C)[C@H]1Cc2cc3c(cc2O1)OC[C@@H]1c2ccc(OC)c(O)c2O[C@H]31`, the IC50 with A2780 amounted to 23.2 µM.
Regarding `O=C1C2=C(C(=O)c3ccccc31)[C@H]1Oc3cc4c(cc3[C@H]1CO2)OCO4`, the IC50 in the data set on K562 [10] was 4.63 µM; in [11], 5.47 µM.
The like results for `O=C1C2=C(C(=O)c3ccccc31)[C@H]1Oc3cc(OCc4ccccc4)c(OCc4ccccc4)cc3[C@H]1CO2` were, in that order, 3.46 µM and 3.64 µM.
`O=C1c2ccccc2C(=O)C2C1OCC1c3cc4c(cc3OC12)OCO4` (centres undefined): the IC50 with MCF7 [3] was 29 µM.
On to `O=c1cccc2n1C[C@@H]1C[C@H]2CN(Cc2c(O)ccc3c2OC[C@H]2c4cc5c(cc4O[C@@H]32)OCO5)C1`, for which the IC50 is 24.3 µM in the data set on HeLa and 48.9 µM with MDA-MB-231.
As for `COc1ccc2c(c1)O[C@@H]1c3cc(OC)c(OC)cc3OC[C@H]21`, the IC50 was 2.5 µg/mL (≈ 7.95 µM) in the data set with HL-60 [12]; over 10 µg/mL in the data set with Jurkat; 2.8 µg/mL (≈ 8.91 µM) in the data set with K562 [13]; 45.9 µg/mL (≈ 146 µM) in the data set on MOLT-4; 8 µM in the data set on MCF7 [17]. Also, the inhibition at 72 h, 10 microg/ml in [14] amounted to 19%. The Activity in the data set on HL-60 [15] was 34.4%; with HL-60 [16] it was 42.6%.
`COc1ccc2c(c1OC)O[C@H]1c3ccc(O[C@H]4O[C@H](CO)[C@@H](O)[C@H](O)[C@H]4O)cc3OC[C@@H]21`: the EC50 in the data set with RAW264.7 amounted to 14.7 µM.
As for `COc1ccc2c(c1CC=C(C)C)O[C@H]1c3ccc(OC(C)=O)cc3OC[C@@H]21`, the IC50 with Plasmodium falciparum [7] stood at 34.8 µg/mL.
